Earlier results as cited in US6384081B2, “Treatment of diseases of the eye characterized by the formation of metalloproteinase” (priority 1998, dated 2002).
Like-named read-outs stand apart in the source and are kept apart here.

Assays:
[1] = molecular target: collagenase purified from culture medium of alkali-burned rabbit corneas
[2] = rabbit eye, 7 mg/kg intravenously
[3] = tested on: epithelial healing in the rabbit alkali-burn model; conditions: for mean percentage of epithelial defects: at 14 days

Molecule: CCCC(NC(CC(C)C)C(=O)NC(Cc1ccccc1)C(=O)NC(C)C(N)=O)C(=O)O (stereo not drawn) [CH3(CH2)2(DL)CH-(COOH)-Leu-Phe-Ala-NH2]
- IC50 ([1]; substrate not stated, read-out: IC50): 25 µM

Molecule: O=C([O-])CC(O)(CC(=O)[O-])C(=O)[O-].[Na+].[Na+].[Na+] [sodium citrate]
- reversal of inhibition by excess Ca2+ ([1]; excess Ca2+): could be reversed by excess Ca2+

Molecule: CCC[C@@H]1C[C@@H](C(=O)N[C@@H]([C@H]2O[C@H](SC)[C@H](O)[C@@H](O)[C@H]2O)[C@H](C)Cl)N(C)C1 [clindamycin]
- intraocular penetration (sub-conjunctival, retrobulbar and intramuscular, one shot, healthy rabbit eye): best results

Molecule: O=C1O[C@H]([C@@H](O)CO)C([O-])=C1O.[Na+] [Sodium ascorbate]
- inhibition of collagenase-mediated hydrolysis ([1]; either collagen or the synthetic substrate): did not inhibit

Molecule: CC(CN1CC(=O)NC(=O)C1)N1CC(=O)NC(=O)C1 (centres unmarked) [Razoxane]
- collagenase production (collagenase): inhibited collagenase production
- TIMP production (TIMP): stimulated TIMP production

Molecule: CC(=O)N[C@@H](CS)C(=O)O [N-acetylcysteine]
- IC50 ([1]; natural substrate (collagen), read-out: IC50): < 10000 µM
- IC50 ([1]; synthetic substrate, read-out: IC50): 2700 µM

Molecule: spiramycin
- intraocular penetration (rabbit, in vivo): best results

Molecule: C[C@H]1c2cccc(O)c2C(=O)C2=C(O)[C@]3(O)C(=O)C(C(N)=O)=C(O)[C@@H](N(C)C)[C@@H]3[C@@H](O)[C@@H]21 [doxycycline]
- Doxycycline concentration in the cornea versus aqueous humor [2]: exceeded that in the aqueous humor
- Vitreous body doxycycline concentration [2]: 0.3 microgram/g
- penetrability into the tissues [2]: good penetrability
- antibiotic concentration in all vascularized ocular structures ([2]; long-lasting): ≥ 1 microgram/g

Molecule: doxycycline hyclate
- mean percentage of epithelial defects ([3]; 1.5 mg/kg orally daily for 14 days): 50.7%
- mean percentage of epithelial defects ([3]; 5 mg/kg orally daily for 14 days): 7.1%
- corneal reepithelialization ([3]; 5 mg/kg/day, systemically administered): promotes corneal reepithelialization

Molecule: CC(C)CC(CS)C(=O)NC(Cc1ccccc1)C(=O)NC(C)C(N)=O (stereo not drawn) [HSCH2(DL)CH[CH2 CH(CH3)2]CO-Phe-Ala-NH2]
- IC50 ([1]; synthetic substrate Dnp-Pro-Leu-Gly-Leu-Trp-Ala-D-Arg-NH2, read-out: 50% inhibition (IC50)): ~0.01 µM
